Source: patent US20260207735A1, “Pharmaceutical compositions, vaccines and their uses in the prevention or treatment of a persistent infection or of cancer” (Universitätsmedizin der Johannes Gutenberg-Universität Mainz, priority 2018, published 2026)

Key:
CD8+ T cell response = details: following transcutaneous immunization with imiquimod in mice; cited from earlier work
[1] = system: peptide-specific CD8+ T cells; assay: Imiquimod based transcutaneous immunization (TCI), primary T cell response (tetramer flow cytometry, in vivo cytolytic activity, IFN-γ ELISpot); parameters: species or system C57BL/6 mice; details: for T cell activation (primary T cell response): 0.0625% in Vaseline on ear skin 24 h before TCI (IMI-Sol + OVA peptides), read-out day 7
influenza = details: combined with a vaccine, compared to the vaccine alone; cited from earlier work
[2] = system: peptide-specific CD8+ T cells; assay: Imiquimod based TCI, memory immune response (secondary T cell response), Day 35; assay type: in vivo, C57BL/6 mice; details: dithranol 0.0625% in Vaseline 24 h before TCI; read-out Day 35
Experimental: C57BL/6 mice (n=3-8 per group) were immunized by TCI, performed as described in FIG. 1 (A) The frequency of peptide-specific CD8^+ T cells was assessed on Day 35 via flow cytometry. (B) The in vivo cytolytic activity was analyzed on Day 35, 20 h after transfer of peptide-loaded splenocytes. (C) IFN-γ production of splenocytes on Day 35 post the indicated treatments. Splenocytes were re-stimulated with the indicated peptides for 24 h before harvest and analysis by ELISpot assay. * Significance by One Way ANOVA with Bonferroni Posttest analysis; p<0.05 (*). […]
For detecting in vivo cytolytic activity, splenocytes of syngenic wildtype mice were labeled with different amounts of 5,6-carboxyfluorescein diacetate succinimidyl ester (CFSE; Invitrogen, Carlsbad, USA) resulting in a CFSE^low and a CFSE^high population. […] Specific lysis was evaluated as following: Specific lysis (%)=100×(1−([…]). All analyses were performed with a LSRII Flow Cytometer and FACSDiva Software (Becton Dickinson, Franklin Lakes, USA). […]

[3] = system: CD11c positive Dendritic cells (DCs); assay: TLR7 mediated activation of splenic dendritic cells in vitro (CD40, CD80, CD86 by flow cytometry); assay type: cell-based, C57BL/6 mice; details: R-848 10 μg/ml, 24 h incubation; NAC 5 mM
Experimental: CD11c positive Dendritic cells (DCs) were purified from spleens from C57BL/6 mice) as described in Weber M et al. (2014) and activated as indicated with the TLR7/8 agonist R-848 (10 μg/ml), anthralin (dithranol), N-acetyl cysteine (NAC 5 mM) or left untreated in Iscoves's medium+5% FCS (Michael Weber et al., “Donor and Host B Cell-Derived IL-10 Contributes to Suppression of Graft-Versus-Host Disease.,” European Journal of Immunology 44, no. 6 (June 2014): 1857-65, doi:10.1002/eji.201344081).
After 24 h incubation, the cells were harvested, labeled with specific mAbs and analyzed by flow cytometry for the activation markers CD40, CD80 and CD86 gating on live (propidium iodide negative, CD11c/MHC class II positive DCs).
Spleens of C57BL6/J wildtype mice were harvested, picked and digested for 45 min with type 2 collagenase (50 U/ml from Worcester, Pappenheim, Germany) and stopped by adding 2 mM EDTA (from Sigma-Aldrich, Taufkirchen, Germany). After a hypotonic lysis step DCs were isolated using CD11c MicroBeads UltraPure (Miltenyi Biotec, Germany) following the manufacturer's instruction. 2×10^5 CD11c^+ DCs/well were plated in 96 well plates and cultivated for either 24 or 48 h in the presence of TLR7 ligand R-848 (10 μg/ml) and/or different concentrations of anthralin (solved in DMSO). […] Following cytokines were quantified using CBA technology: IL-1b; IL-6; IL-10; IL-12; IL-23; TNF-α.

[4] = α-Tocopherol 600 U/kg i.p. 1 h before anthralin and/or TCI, day 7

Oc1cc2ccccc2c2ccccc12 [9-phenanthrol]
generation of a CD8+ T cell response (CD8+ T cell response): enhances the generation of a CD8+ T cell response

Cc1c(C)c2c(c(C)c1O)CC[C@@](C)(CCC[C@H](C)CCC[C@H](C)CCCC(C)C)O2 [α-Tocopherol]
CTL frequency (peptide-specific CD8+ T cells) [1, 4]: without affecting CTL frequency | in vivo cytolytic activity induced by dithranol (anthralin) TCI [1, 4]: antagonizes the enhanced cytolytic activity induced by dithranol (anthralin) TCI

CC(C)Cn1cnc2c(N)nc3ccccc3c21 [Imiquimod, imiquimod]
survival of mice (influenza): improve survival of mice

O=C1c2c(O)cccc2Cc2cccc(O)c21 [dithranol, 1,8-dihydroxy-9-anthrone]
T cell activation (primary T cell response) [1]: synergistic effect on T cell activation on CD8 positive as well as CD4 positive T cells | site dependence of synergistic T cell activation ([1]; TCI on both ears or only one ear, day 7): required at the same site (ear) to mediate synergistic T cell activation | T cell activation including memory T cell formation (secondary T cell response) [2]: synergistic effect on T cell activation on CD8 positive as well as CD4 positive T cells including memory T cell formation | TLR7 mediated activation of DCs (CD40, CD80, CD86) [3]: suppresses the TLR7 mediated activation of DCs in vitro

CC(=O)N[C@@H](CS)C(=O)O [NAC, N-acetyl cysteine]
TLR7 mediated activation of DCs (CD40, CD80, CD86) [3]: activation phenotype is restored

O=C1c2cccc(O)c2C(=O)c2c(O)cccc21 [danthron]
T cell activation (primary T cell response) [1]: no impact on T cell activation
